The results in this text go back to patent publication US7009045B2 (priority 2000, dated 2006).

The subject of assay [1] is C. famata. In kind it is cell-based, Candida famata.
Assay [2] relates to Candida famata regulatory mutants able to overproduce riboflavin. Briefly: Sensitivity to Co^+2 ions, solid Burkholder medium (Table 16). In kind it is cell-based. More on the design: key: +++: strong growth; ++: weak growth; +: very weak growth; —: absence of growth. As for the experimental part: (§1) The sensitivity of the regulatory mutants of the yeast C. famata which overproduce riboflavin in iron rich medium probably due to defects in genes regulating repression (repression mutants), to different ions of heavy metals was studied. For this, the analyzed strains were streaked on the YPD plates and then were replica-plated on Burkholder synthetic medium containing leucine (40 μg/ml). The C.famata mutants L20105-40-1-11, L20105-40-1-17, L20105-3-2-1, L20105-3-2-8 and L20105-3-2-12 (all contained leu2 marker) accumulated 80–100 μg riboflavin/ml. The mutants #75, 4-48, 2-5 produced much higher amounts of riboflavin (200–250 μg/ml) but were prototrophs for leucine synthesis. Strain #75 was characterized by retarded growth comparing with other mutants. The strains VKM Y-9 (wild type) and L20105 (leu2) were used as the control strains.

Assay [3] has the same test system. In words: Sensitivity to copper ions, solid Burkholder medium (Table 12). Format: cell-based. Further details: key: +++: strong growth; ++: weak growth; —: absence of growth. The note with it: L20105-3-2-4.
Assay [4] deals with Pichia guilliermondii wild type and regulatory mutants (rib81). In words: Sensitivity after electroporation to K2Cr2O7, medium with 0.5% glycerol (Table 21). Particulars: Cr^+6 250–350 μM, 0.6 M KCl. Format: cell-based. The source says:
(§2) The possibility for positive selection of P. guilliermondii rib81 transformants unable to overproduce riboflavin in minimal medium was studied. For this, the toxicity of K2Cr2O7 (Cr^+6) was compared for the P. guilliermondii wild-type strain ATCC 9058 and regulatory mutants P. guilliermondii rib81 9-20 and 20-2. The cells were pregrown in liquid YPD to OD 1.5–2.0 (540 nm) and electroporated according to the protocol described (Example 34). Electroporated cells were washed three times with 10×volume of 0.6 M KCl and then the volume was adjusted to 1 ml. Then the cells were plated at 0.2 ml suspension per plate which contained 0.5% glycerol, 0.6 M KCl and K2Cr2O7 (50–1000 μM).
(§3) The visual selection of the non-overproducing riboflavin transformants is rather arbitrary and uncertain. Therefore it was decided to develop the method for positive selection of the transformants using tentative differences in sensitivity to K2Cr2O7 of wild-type P. guilliermondii and the regulatory mutants rib81 9-20 and 20-2. After 6 days of cultivation in the medium with 0.5% glycerol, it was shown that K2Cr2O7 at 150–180 μM inhibited growth of regulatory mutant 9-20 more strongly than that of the wild strain (Table 21).

Assay [5] concerns Candida famata regulatory mutants able to overproduce riboflavin. In words: Sensitivity to K2Cr2O7, solid Burkholder medium with 0.5% glycerol (Table 14). Format: cell-based. More on the design: key: +++: strong growth; ++: weak growth; +: very weak growth; —: absence of growth. As for the experimental part:
as §1

Assay [6] deals with Candida famata wild type and regulatory mutants able to overproduce riboflavin on iron-rich medium. Briefly: Sensitivity after electroporation to K2Cr2O7, Burkholder medium with 1% ethanol (Table 17). The note with it: K2Cr2O7 15–50 μM. Format: cell-based. The source says: The strategy for the cloning of the genes regulating derepression of riboflavin in C. famata was developed using regulatory mutants 2-5 and 4-48 which accumulate elevated amounts of riboflavin in the medium with high iron content. The method for positive selection of the transformants which, after transformation with C. famata gene library, would lose the ability to overproduce riboflavin in iron rich medium, was developed. For this, the difference in sensitivity to Cr^+6 ions (as K2Cr2O7) between C. famata wild strain VKM Y-9 and overproducers of riboflavin 2-5 and 4-48 after their electroporation with the C. famata gene library constructed on pCfARS1614, was studied.
Toxicity of Cr^+6 was studied on agar plates containing different carbon sources (sucrose, glycerol, ethanol). Before the electroporated cells were plated on ethanol and glycerol medium, the cells were washed 3 times with 10 fold volumes of 0.6 M KCl and the suspension volumes were adjusted with 0.6 M KCl to 100 μl. On each plate containing glycerol (0.5%) or ethanol (1%), 0.6 M KCl and different concentrations (10–200 uM) of K2Cr2O7, in a 30–60 μl suspension were spread. Where sucrose was used as a carbon source, this sugar was used at a 0.3M concentration, using it as both as a carbon source and osmotic stabilizer.

Assay [7] concerns Pichia guilliermondii wild type and regulatory mutants (rib81). Briefly: Sensitivity after electroporation to K2Cr2O7, medium with 0.5% glycerol (Table 21). Format: cell-based. More on the design: key: +++: strong growth; ++: weak growth; —: absence of growth.
Excerpt: as §2, §3

Assay [8] has as its system Candida famata regulatory mutants able to overproduce riboflavin. In words: Sensitivity to K2Cr2O7, solid Burkholder medium with 0.5% glycerol (Table 14). Format: cell-based. On the procedure: as §1

Structures are written as SMILES. “And” between values parts separate entries of the source, which are not always exact repeats. Equal entries are not always repeated.

In the case of `[Cl-].[Cl-].[Co+2]` [CoCl2], the “concentration non-toxic for yeast growth that stimulates riboflavin synthesis” value in assay [1] came to 15 µg/mL. In addition, the “higher concentrations tested that inhibited plate growth” value in assay [1] was 50 µg/mL and 100 µg/mL. Besides, the “maximal subinhibitory concentration which stimulates flavinogenesis” value in assay [1] came out at 25 µg/mL. In addition, the growth entry in assay [2] (#2-5, Co^+2 3.75 μg/ml) is “+”; in assay [2] (#75, Co^+2 2.5 μg/ml), “+”; in assay [2] (L20105-3-2-1, Co^+2 3.75 μg/ml), “+”; in assay [2] (L20105-3-2-8, Co^+2 3.75 μg/ml), “+”; in assay [2] (L20105-3-2-8, Co^+2 5.0 μg/ml) it was “+”; in assay [2] (L20105-3-2-9, Co^+2 3.75 μg/ml), “+”. The growth entry in assay [2] (L20105-3-2-12, Co^+2 3.75 μg/ml) is recorded as “+”; in assay [2] (L20105-3-2-12, Co^+2 5.0 μg/ml) it was “+”; in assay [2] (L20105-40-1-11, Co^+2 3.75 μg/ml), “+”.
As for `O=S(=O)([O-])[O-].[Cu+2]` [CuSO4], the growth entry in assay [3] (Cu^+2 0.3 mM) and in assay [3] (Cu^+2 8 mM) was “—” throughout.
With `[K+].[K+].[O]=[Cr](=[O])([O-])[O][Cr](=[O])(=[O])[O-]` [K2Cr2O7], the “growth of wild-type strain P. guilliermondii ATCC 9058” value in assay [4] is “only slightly depressed”. For the same compound, the growth entry in assay [5] (#2-5, K2Cr2O7 65 μM) is recorded as “+”; in assay [5] (#2-5, K2Cr2O7 75 μM) it was “+”; in assay [5] (L20105-3-2-4, K2Cr2O7 30 μM) it was “+”; in assay [5] (L20105-3-2-4, K2Cr2O7 40 μM), “+”; in assay [5] (L20105-3-2-8, K2Cr2O7 30 μM), “+”; in assay [5] (L20105-3-2-8, K2Cr2O7 40 μM), “+”. For the same compound, the growth entry in assay [5] (L20105-3-2-12, K2Cr2O7 30 μM) is recorded as “+”; in assay [5] (L20105-3-2-12, K2Cr2O7 40 μM) it was “+”; in assay [7] (#9-20 (leu2), K2Cr2O7 75 μM) it was “+++”; in assay [7] (#9-20 (leu2), K2Cr2O7 100 μM) it was “++”; in assay [7] (#9-20 (leu2), K2Cr2O7 150 μM), “—”; in assay [7] (#9-20 (leu2), K2Cr2O7 185 μM), “—”. Also, the growth entry is “—” in assay [7] (#9-20 (leu2), K2Cr2O7 240 μM); “+++” in assay [7] (ATCC9058, K2Cr2O7 75 μM); “+++” in assay [7] (ATCC9058, K2Cr2O7 100 μM); “+++” in assay [7] (ATCC9058, K2Cr2O7 125 μM); “+++” in assay [7] (ATCC9058, K2Cr2O7 150 μM); “++” in assay [7] (ATCC9058, K2Cr2O7 185 μM). The growth entry in assay [7] (ATCC9058, K2Cr2O7 240 μM) was “—”. Also, in assay [6], the “growth of the wild-type strain” value was “almost uninhibited”. Besides, the “concentration inhibiting growth of weaker overproducers” value in assay [8] was found to be 50 µM.
